# According to US20260226048A1, “MULTI-CYCLIC IRAK AND FLT3 INHIBITING COMPOUNDS AND USES THEREOF” (CHILDREN'S HOSPITAL MEDICAL CENTER, priority 2023, published 2026):
# Assays:
# IRAK4 [1] = molecular target: T1, IRAK4 (Homo sapiens, UniProt Q9NWZ3); assay: Reaction Biology NanoBRET target engagement assay in HEK-293 cells, IRAK4; assay type: cell-based; conditions: live HEK-293 cells transfected with Kinase-NanoLuc fusion, 1 hour
# T1 sequence (Q9NWZ3 1-460): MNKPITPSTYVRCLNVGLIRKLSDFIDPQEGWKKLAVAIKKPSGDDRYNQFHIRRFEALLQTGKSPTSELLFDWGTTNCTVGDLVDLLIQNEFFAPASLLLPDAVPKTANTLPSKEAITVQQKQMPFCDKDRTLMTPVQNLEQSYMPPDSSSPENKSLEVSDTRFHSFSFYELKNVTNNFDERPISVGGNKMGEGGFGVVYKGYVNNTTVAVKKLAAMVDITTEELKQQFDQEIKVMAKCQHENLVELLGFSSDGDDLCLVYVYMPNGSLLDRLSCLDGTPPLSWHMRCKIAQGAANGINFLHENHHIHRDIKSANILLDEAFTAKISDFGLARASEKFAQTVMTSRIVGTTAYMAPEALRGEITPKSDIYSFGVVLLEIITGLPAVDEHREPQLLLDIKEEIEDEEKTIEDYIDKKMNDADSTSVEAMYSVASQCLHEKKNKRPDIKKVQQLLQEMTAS
# Description: The NanoBRET assay measures kinase engagement in real time in the context of the intact cell. Unlike the previously described biochemical kinase assay methodology in Example 33, the NanoBRET assay measures the binding and activity characteristics under equilibrium conditions using full-length kinases in the presence of cellular concentrations of ATP in live, uncompromised cells. As such, the assay provides a more relevant assessment of kinase potency and selectivity that would be expected to be observed in the native cellular environment, where potency is often considerably lower than that observed in the isolated biochemical assays (Vasta, J. D. et al., (2018) Cell Chem. Biol. 25, 206-214). The assay uses a Kinase-NanoLuc® fusion vector expressing a kinase protein to which a luciferase tag has been added, a cell-permeant fluorescent NanoBRET™ tracer, a NanoLuc® substrate, and an extracellular NanoLuc® inhibitor. Upon expression of the luciferase-tagged kinase, cells will produce a strong BRET signal only in the presence of the NanoBRET™ tracer. The extracellular NanoLuc® inhibitor ensures that the BRET signal observed emanates only from live cells. Because the BRET signal has tight distance constraints, addition of the test compound will decrease the BRET signal if the compound competes with the NanoBRET™ tracer for binding to the kinase domain. Under the appropriate tracer conditions established by the manufacturer, quantitative intracellular affinity and relative potency can then be determined using Mass Action model equations.
# HEK-293 cells were purchased from ATCC. FuGENEHD Transfection Reagent, Kinase-NanoLucfusion plasmids, Transfection Carrier DNA, NanoBRETTracers and dilution buffer, NanoBRETNano-Glo Substrate, Extracellular NanoLucInhibitor were obtained from Promega.
# Assays were conducted following Promega assay protocol with some modifications. HEK-293 Cells were transiently transfected with Kinase-NanoLucFusion Vector DNA by FuGENEHD Transfection Reagent. Testing compounds were delivered into 384 well assay plate by Echo 550 (LabcyteInc, Sunnyvale, CA). Transfected cells were harvested and mixed with NanoBRETTracer Reagent and dispensed into 384 well plates and incubated at 37° C. in 5% C02 cell culture incubator for 1 hour. The NanoBRETNano-Glo Substrate plus Extracellular NanoLucInhibitor Solution were added into the wells of the assay plate and incubated for 2-3 minutes at room temperature. The donor emission wavelength (460 nm) and acceptor emission wavelength (600 nm) were measured in the EnVisionplate reader. The BRET Ratios were calculated. BRET Ratio=[(Acceptor sample÷Donor sample)−(Acceptor no-tracer control÷Donor no-tracer control)]. The IC50 values of compounds were calculated with Prism GraphPad program.
# • 1). Cultivate HEK-293 cells (70-80% confluence) appropriately prior to assay. Trypsinize and collect HEK-293 cells. • 2). Prepare lipid: DNA complexes as follows: • a. Prepare a 10 μg/ml solution of DNA in Opti-MEM without serum that consists of the following ratios of carrier DNA and DNA encoding NanoLuc® fusion. 9.0 μg/mL of Transfection Carrier DNA, 1.0 μg/mL of NanoLuc fusion vector DNA and 1 mL of Opti-MEM without phenol red. Mix thoroughly. • b. Add 30 μl of FuGENE HD Transfection Reagent into each milliliter of DNA mixture to form lipid: DNA complex. • c. Mix by inversion 10 times. • d. Incubate at ambient temperature for 20 minutes to allow complexes to form. • 3). In a sterile, conical tube, mix 1 part of lipid:DNA complex with 20 parts of HEK-293 cells in suspension. Mix gently by inversion 5 times. • 4). Dispense cells+lipid:DNA complex into a sterile tissue culture dish and incubate for 22-24 hours.
# Each test compound is delivered from the compound source plate to the wells of 384-well white NBS plate by Echo 550.
# 3. Preparation of Cells with NanoBRET™ Tracer Reagent • 1). […]
# [2] = system: MOLM14-D835Y cells (FLT3-ITD (D835Y) mutant); assay: Combination drug screening with venetoclax in MOLM14 (D835Y) cells (Cell Titre Glo, 10 × 10); assay type: cell-based; parameters: Excess HSA (sum excess HSA score, combination with venetoclax): scale not given here; conditions: for Excess HSA (sum excess HSA score, combination with venetoclax): 10 × 10 dataset, Cell Titre Glo at 48 hours, optimal of 4 dose combinations, negative = synergy; for Concentration of a compound of the disclosure, or gilteritinib, needed to decrease the 62.5 nM Ven response to <10% in MOLM14(D835Y) cells: combination with 62.5 nM Venetoclax, Cell Titer Glo, 48 hours, response <10%
# Protocol: These assays were performed using the Cell Titre Glo assay, measured at 48 hours.
# A smaller concentration indicates higher potency to synergize with Venetoclax.
# IRAK4 [3] = molecular target: T1, IRAK4; assay: RBC HotSpot Kinase Assay, IRAK4; assay type: biochemical; parameters: purchased Reaction Biology (RBC HotSpot); conditions: isolated kinase enzyme, 33P-ATP, P81 filter-binding
# Procedure, shortened: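 Radiometric filter-binding activity assay with isolated recombinant kinase (construct may be truncated or catalytic domain only) in 20 mM Hepes pH 7.5, 10 mM MgCl2, 1 mM EGTA, 2 mM DTT, 1% DMSO. Compound preincubated 20 min with kinase/substrate; reaction started with 33P-ATP, run 2 h at room temperature.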
Structure (SMILES),IC50 (IRAK4 [1]),"Excess HSA (sum excess HSA score, combination with venetoclax) [2]","Concentration of a compound of the disclosure, or gilteritinib, needed to decrease the 62.5 nM Ven response to <10% in MOLM14(D835Y) cells [2]",IC50 (IRAK4 [3])
"F[C@H]1CCNC[C@@H]1Nc1nccc(-c2cnc3cc(OC4CC4)c(C4CC4)nn23)n1 [Compound 12a, 4-(7-cyclopropoxy-6-cyclopropylimidazo[1,2-b]pyridazin-3-yl)-N-((3S,4S)-4-fluoropiperidin-3-yl)pyrimidin-2-amine]",< 0.5 nM,−1236,100 nM,6 nM
"CC(O)(c1ccc2ncc(-c3ccnc(N[C@@H]4CCCNC4)n3)n2c1)C(F)(F)F (single isomer, unassigned) [Compound 23a]",< 0.5 nM,–,–,0.8 nM
"COc1cc2ncc(-c3nc(N[C@H]4CNCC[C@@H]4F)ncc3F)n2nc1N1CCCS1(=O)=O [Compound 112a, 2-(3-(5-fluoro-2-(((3S,4S)-4-fluoropiperidin-3-yl)amino)pyrimidin-4-yl)-7-methoxyimidazo[1,2-b]pyridazin-6-yl)isothiazolidine 1,1-dioxide]",< 0.5 nM,–,–,3 nM
"COc1cc2ncc(-c3nc(N[C@@H]4CCCNC4)ncc3F)n2nc1C1CC2(CCC2)C1 [Compound 59a, (R)-5-fluoro-4-(7-methoxy-6-(spiro[3.3]heptan-2-yl)imidazo[1,2-b]pyridazin-3-yl)-N-(piperidin-3-yl)pyrimidin-2-amine]",–,−1911,12.5 nM,3 nM
"COc1cc2ncc(-c3nc(N[C@H]4CNCC[C@@H]4F)ncc3F)n2nc1C1CC(F)(F)C1 [Compound 49a, 4-(6-(3,3-difluorocyclobutyl)-7-methoxyimidazo[1,2-b]pyridazin-3-yl)-5-fluoro-N-((3S,4S)-4-fluoropiperidin-3-yl)pyrimidin-2-amine]",< 0.5 nM,−1960,6.3 nM,0.5 nM
"COc1cc2ncc(-c3nc(N[C@H]4CNCC[C@@H]4F)ncc3F)n2nc1C(C)(C)O [Compound 45a, 2-(3-(5-fluoro-2-(((3S,4S)-4-fluoropiperidin-3-yl)amino)pyrimidin-4-yl)-7-methoxyimidazo[1,2-b]pyridazin-6-yl)propan-2-ol]",3 nM,−2340,25 nM,8 nM
"COc1cc2ncc(-c3nc(N[C@H]4CNCC[C@@H]4F)ncc3F)n2nc1C1CC2(CCC2)C1 [Compound 60a, 5-fluoro-N-((3S,4S)-4-fluoropiperidin-3-yl)-4-(7-methoxy-6-(spiro[3.3]heptan-2-yl)imidazo[1,2-b]pyridazin-3-yl)pyrimidin-2-amine]",–,−1497.3117,25 nM,8 nM
"COc1cc2ncc(-c3nc(N[C@H]4CNCC[C@@H]4F)ncc3F)n2nc1C1COC1 [Compound 92a, 5-fluoro-N-((3S,4S)-4-fluoropiperidin-3-yl)-4-(7-methoxy-6-(oxetan-3-yl)imidazo[1,2-b]pyridazin-3-yl)pyrimidin-2-amine]",< 0.5 nM,–,12.5 nM,< 0.5 nM
"CC(O)(c1ccc2ncc(-c3cncc(N[C@@H]4CCCNC4)n3)n2c1)C(F)(F)F (single isomer, unassigned) [Compound 28a]",< 0.5 nM,–,–,3 nM
"CC(C)(O)c1ccc2ncc(-c3nc(N[C@@H]4CCCNC4)ncc3F)n2c1 [Compound 48a, (R)-2-(3-(5-fluoro-2-(piperidin-3-ylamino)pyrimidin-4-yl)imidazo[1,2-a]pyridin-6-yl)propan-2-ol]",5 nM,−1694,156.3 nM,5 nM
"CC(O)(c1ccc2ncc(-c3cncc(N[C@H]4CNCC[C@@H]4F)n3)n2c1)C(F)(F)F (single isomer, unassigned) [Compound 31a]",< 0.5 nM,–,–,2 nM
"FC(F)COc1cc2ncc(-c3ccnc(N[C@H]4CNCC[C@@H]4F)n3)n2nc1C1CC1 [Compound 4a, 4-(6-cyclopropyl-7-(2,2-difluoroethoxy)imidazo[1,2-b]pyridazin-3-yl)-N-((3 S,4S)-4-fluoropiperidin-3-yl)pyrimidin-2-amine]",0.8 nM,−1769,6.3 nM,1 nM
"CC(C)(O)c1ccc2ncc(-c3nc(N[C@H]4CNCC[C@@H]4F)ncc3F)n2c1 [Compound 46a, 2-(3-(5-fluoro-2-(((3S,4S)-4-fluoropiperidin-3-yl)amino)pyrimidin-4-yl)imidazo[1,2-a]pyridin-6-yl)propan-2-ol]",4 nM,−1279,50 nM,2 nM
"CC(O)(c1ccc2ncc(-c3ccnc(N[C@@H]4CCCNC4)n3)n2c1)C(F)(F)F (single isomer, unassigned) [Compound 22a]",< 0.5 nM,–,–,3 nM
"COc1cc2ncc(-c3nc(N[C@H]4CNCC[C@@H]4F)ncc3F)n2nc1C1CC1 [Compound 1a, 4-(6-cyclopropyl-7-methoxyimidazo[1,2-b]pyridazin-3-yl)-5-fluoro-N-((3S,4S)-4-fluoropiperidin-3-yl)pyrimidin-2-amine]",< 0.5 nM,−1505,1.6 nM,0.9 nM
"COc1cc2ncc(-c3nc(N[C@H]4CNC[C@@H]4F)ncc3F)n2nc1N1CCCS1(=O)=O [Compound 111a, 2-(3-(5-fluoro-2-(((3S,4S)-4-fluoropyrrolidin-3-yl)amino)pyrimidin-4-yl)-7-methoxyimidazo[1,2-b]pyridazin-6-yl)isothiazolidine 1,1-dioxide]",34 nM,–,–,3 nM
